Data as given in patent publication US9216964B2, “Hedgehog pathway modulators” (Novartis AG, priority 2008, dated 2015).
pIC50: −log10 of the molar value. Where two headings read alike, the source gives them in different places.

Test system: hedgehog signaling pathway
Assay: Gli-Luc Reporter Assay for Hh Pathway Inhibition (TMHh-12 cells, pTA-8×Gli-Luc reporter)
Format: cell-based, Mouse
Details: for pIC50: read-out: IC50 Ranges; for IC50: TMHh12, Ag1.5 1 nM, read-out: Hedgehog Inhibition IC50 (nM) (Ag1.5 1 nM)
Protocol: Compounds of the present invention are assayed to evaluate their capacity to inhibit the hedgehog signaling pathway.
Gli-Luc Reporter Assay for Hh Pathway Inhibition
Mouse TM3 cells (obtained from American Type Culture Collection, ATCC, Manassas, Va.) are cultured in DMEM/F12 medium (Gibco/Invitrogen, Carlsbad, Calif.) supplemented with 5% heat inactivated horse serum and 2.5% FBS (Gibco/Invitrogen, Carlsbad, Calif.), 50 unit/mL penicillin and 50 μg/mL of streptomycin (Gibco/Invitrogen, Carlsbad, Calif.) at […] with 5% CO2 in air atmosphere. TM3 cells were transfected with pTA-8×Gli-Luc reporter plasmid. A stably transfected clone termed TMHh-12 was selected. […] To evaluate the IC50s of the antagonists, 8000 TMHh-12 cells were plated into each wells in 384-well plates with 50% DMEM/F12 medium supplemented with 2% FBS. After 12 hours, Hh pathway is activated by adding recombinant mouse Shh protein (expressed in E. coli, 8 μg/mL) or by adding Smo agonists. The testing compounds are added into plates with different concentrations. After 48 hours, the firefly luciferase luciferase activities are assayed with the Bright-Glo™ Luciferase Assay System (Promega, Madison, Wis.). The IC50 is measured when the effect of the compound reduces the luminescence signal by 50%. Toxicity of these compounds are evaluated in TM3 cells using CellTiter Glo assays or by TM3-Luc cell line (a TM3 cell stably transfected with a constitutive luciferase expression vector).

[1] = Mus musculus, TMHh12, enzymatic and cellular assays for the inhibition of hedgehog signaling pathways

Structure (SMILES)	pIC50 (enzymatic and cellular assays for the inhibition of hedgehog signaling pathways)	IC50 (Mus musculus)	pIC50 [1]
[O-][S+]1CCC(N2CCc3c(cccc3Nc3ccc(Cl)c(-c4ncc(-c5ccccc5)[nH]4)c3)C2)CC1 (stereo not shown) [Compound 1]	9.00 to 12.00		
CC(CO)(CO)C(=O)N1CCc2c(cccc2Nc2ccc(Cl)c(-c3ncc(-c4ccccc4)[nH]3)c2)C1 [Compound 2]		0.45 nM	9.00 to 12.00
O=S1(=O)CCC(N2CCc3c(cccc3Nc3ccc(Cl)c(-c4ncc(-c5ccccc5)[nH]4)c3)C2)CC1 [Compound 3]		0.06 nM	9.00 to 12.00
CS(=O)(=O)N1CCc2c(cccc2Nc2ccc(Cl)c(-c3ncc(-c4ccccc4)[nH]3)c2)C1 [Compound 4]			9.00 to 12.00
Cc1ccc(Nc2cccc3c2CCN(S(C)(=O)=O)C3)cc1-c1nc2ccccc2[nH]1 [Compound 5]		0.1 nM	9.00 to 12.00
CCN1CCC(N2CCc3c(cccc3Nc3ccc(Cl)c(-c4ncc(-c5ccccc5)[nH]4)c3)C2)CC1 [Compound 6]			9.00 to 12.00
CS(=O)(=O)CC(=O)N1CCc2c(cccc2Nc2ccc(Cl)c(-c3ncc(-c4ccccc4)[nH]3)c2)C1 [Compound 7]		0.25 nM	9.00 to 12.00
C[C@@H](O)C(=O)N1CCc2c(cccc2Nc2ccc(Cl)c(-c3ncc(-c4ccccc4)[nH]3)c2)C1 [Compound 8]			9.00 to 12.00
O=C(C(O)CO)N1CCc2c(cccc2Nc2ccc(Cl)c(-c3ncc(-c4ccccc4)[nH]3)c2)C1 (stereo not shown) [Compound 9]			9.00 to 12.00
CC(O)C(=O)N1CCc2c(cccc2Nc2ccc(Cl)c(-c3ncc(-c4ccccc4)[nH]3)c2)C1 (stereo not shown) [Compound 10]			9.00 to 12.00
CC(=O)N1CCC(N2CCc3c(cccc3Nc3ccc(Cl)c(-c4ncc(-c5ccccc5)[nH]4)c3)C2)CC1 [Compound 11]			9.00 to 12.00
[O-][S+]1CCC(N2CCc3c(cccc3Nc3ccc(Cl)c(-c4ncc(-c5ccccc5)[nH]4)c3)C2)CC1 (stereo not shown) [Compound 12]			9.00 to 12.00
NS(=O)(=O)N1CCc2c(cccc2Nc2ccc(Cl)c(-c3ncc(-c4ccccc4)[nH]3)c2)C1 [Compound 13]		1.6 nM	8.00 to 9.00
CC(C)(CO)C(=O)N1CCc2c(cccc2Nc2ccc(Cl)c(-c3ncc(-c4ccccc4)[nH]3)c2)C1 [Compound 14]			9.00 to 12.00
COc1ccc2[nH]c(-c3cc(Nc4cccc5c4CCN(S(C)(=O)=O)C5)ccc3C)nc2c1 [Compound 15]			9.00 to 12.00
CN(C)c1ccc2nc(-c3cc(Nc4cccc5c4CCN(S(C)(=O)=O)C5)ccc3Cl)[nH]c2c1 [Compound 16]		3.8 nM	8.00 to 9.00
O=S(=O)(NCCO)N1CCc2c(cccc2Nc2ccc(Cl)c(-c3ncc(-c4ccccc4)[nH]3)c2)C1 [Compound 17]			9.00 to 12.00
OC[C@H](O)CN1CCc2c(cccc2Nc2ccc(Cl)c(-c3ncc(-c4ccccc4)[nH]3)c2)C1 [Compound 18]			9.00 to 12.00
C[S+]([O-])CC(=O)N1CCc2c(cccc2Nc2ccc(Cl)c(-c3ncc(-c4ccccc4)[nH]3)c2)C1 (stereo not shown) [Compound 19]			9.00 to 12.00
C[C@H](O)C(=O)N1CCc2c(cccc2Nc2ccc(Cl)c(-c3ncc(-c4ccccc4)[nH]3)c2)C1 [Compound 20]			8.00 to 9.00
CC1(C)CC(N2CCc3c(cccc3Nc3ccc(Cl)c(-c4ncc(-c5ccccc5)[nH]4)c3)C2)CC(C)(C)N1 [Compound 21]		0.86 nM	9.00 to 12.00
Clc1ccc(Nc2cccc3c2CCN(C2CCCCC2)C3)cc1-c1ncc(-c2ccccc2)[nH]1 [Compound 22]			8.00 to 9.00
Clc1ccc(Nc2cccc3c2CCN(CC2CCCCC2)C3)cc1-c1ncc(-c2ccccc2)[nH]1 [Compound 23]		2 nM	8.00 to 9.00
CNS(=O)(=O)N1CCc2c(cccc2Nc2ccc(Cl)c(-c3ncc(-c4ccccc4)[nH]3)c2)C1 [Compound 25]			8.00 to 9.00

Structure (SMILES)	pIC50 (enzymatic and cellular assays for the inhibition of hedgehog signaling pathways)	IC50 (Mus musculus)	pIC50 [1]
[O-][S+]1CCC([N+]2([O-])CCc3c(cccc3Nc3ccc(Cl)c(-c4ncc(-c5ccccc5)[nH]4)c3)C2)CC1 (stereo not shown) [Compound 26]			8.00 to 9.00
O=C([C@@H](O)CO)N1CCc2c(cccc2Nc2ccc(Cl)c(-c3nc(-c4ccccc4)c[nH]3)c2)C1 [Compound 27]			9.00 to 12.00
CC1(C)OC[C@H](CN2CCC(N3CCc4c(cccc4Nc4ccc(Cl)c(-c5ncc(-c6ccccc6)[nH]5)c4)C3)CC2)O1 [Compound 28]			8.00 to 9.00
Clc1ccc(Nc2cccc3c2CCN(C2CCOCC2)C3)cc1-c1ncc(-c2ccccc2)[nH]1 [Compound 29]			9.00 to 12.00
Clc1ccc(Nc2cccc3c2CCN(C2CCCCCC2)C3)cc1-c1ncc(-c2ccccc2)[nH]1 [Compound 30]		1.2 nM	8.00 to 9.00
CCC(CC)N1CCC(N2CCc3c(cccc3Nc3ccc(Cl)c(-c4ncc(-c5ccccc5)[nH]4)c3)C2)CC1 [Compound 31]			9.00 to 12.00
CCN1CCC(N2CCc3c(Nc4ccc(Cl)c(-c5ncc(-c6ccccc6)[nH]5)c4)cccc3C2=O)CC1 [Compound 32]			8.00 to 9.00
O=C1CCC(N2CCc3c(cccc3Nc3ccc(Cl)c(-c4ncc(-c5ccccc5)[nH]4)c3)C2)CC1 [Compound 33]		0.7 nM	9.00 to 12.00
OCC(CO)N1CCc2c(cccc2Nc2ccc(Cl)c(-c3ncc(-c4ccccc4)[nH]3)c2)C1 [Compound 34]		1.8 nM	8.00 to 9.00
O=C1c2cccc(Nc3ccc(Cl)c(-c4ncc(-c5ccccc5)[nH]4)c3)c2CCN1C[C@H](O)CO [Compound 35]		2.6 nM	8.00 to 9.00
CC(C)N1CCC(N2CCc3c(cccc3Nc3ccc(Cl)c(-c4ncc(-c5ccccc5)[nH]4)c3)C2)CC1 [Compound 36]			9.00 to 12.00
OC1CCC(N2CCc3c(cccc3Nc3ccc(Cl)c(-c4ncc(-c5ccccc5)[nH]4)c3)C2)CC1 (stereo not shown) [Compound 37]		0.73 nM	9.00 to 12.00
O=C([C@H](O)CO)N1CCc2c(cccc2Nc2ccc(Cl)c(-c3nc(-c4ccccc4)c[nH]3)c2)C1 [Compound 38]			9.00 to 12.00
Clc1ccc(Nc2cccc3c2CCN(CC2CCOCC2)C3)cc1-c1ncc(-c2ccccc2)[nH]1 [Compound 39]			9.00 to 12.00
OCC(O)CN1CCC(N2CCc3c(cccc3Nc3ccc(Cl)c(-c4ncc(-c5ccccc5)[nH]4)c3)C2)CC1 (stereo not shown) [Compound 40]			9.00 to 12.00
CN1CCC(N2CCc3c(cccc3Nc3ccc(Cl)c(-c4ncc(-c5ccccc5)[nH]4)c3)C2)CC1 [Compound 41]			8.00 to 9.00
O=C(NCCO)N1CCc2c(cccc2Nc2ccc(Cl)c(-c3ncc(-c4ccccc4)[nH]3)c2)C1 [Compound 42]		0.0017 nM	9.00 to 12.00
NC(=O)N1CCc2c(cccc2Nc2ccc(Cl)c(-c3ncc(-c4ccccc4)[nH]3)c2)C1 [Compound 43]		4.5 nM	8.00 to 9.00
O=C(O)CC(=O)N1CCc2c(cccc2Nc2ccc(Cl)c(-c3nc(-c4ccccc4)c[nH]3)c2)C1 [Compound 44]			8.00 to 9.00
CC(C)(C)OC(=O)N1CCc2c(cccc2Nc2ccc(Cl)c(-c3ncc(-c4ccccc4)[nH]3)c2)C1 [Compound 45]		3 nM	8.00 to 9.00
CC(C)N1CCc2c(cccc2Nc2ccc(Cl)c(-c3ncc(-c4ccccc4)[nH]3)c2)C1 [Compound 46]			8.00 to 9.00
C[S+]([O-])CCCN1CCc2c(cccc2Nc2ccc(Cl)c(-c3ncc(-c4ccccc4)[nH]3)c2)C1 (stereo not shown) [Compound 47]			8.00 to 9.00
OC[C@H](O)[C@@H](O)CN1CCc2c(cccc2Nc2ccc(Cl)c(-c3ncc(-c4ccccc4)[nH]3)c2)C1 [Compound 48]			8.00 to 9.00
[O-][n+]1ccc(N2CCc3c(cccc3Nc3ccc(Cl)c(-c4ncc(-c5ccccc5)[nH]4)c3)C2)cc1 [Compound 49]			8.00 to 9.00
